# According to US20230391772A1, “METHODS AND COMPOSITIONS FOR TARGETED PROTEIN DEGRADATION” (Ranok Therapeutics (Hangzhou) Co. Ltd., priority 2020, published 2023):
# Legend:
# [1] = tested on: MIA PaCa-2 human pancreatic carcinoma; assay: MIA PaCa-2 CCK-8 proliferation assay; format: cell-based; details: MIA PaCa-2 cells
# How it was run: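 MIA PaCa-2 (2 copies KRAS(G12C)), NCI-H358 and NCI-H23 (1 copy KRAS(G12C) each) were exposed to compound in 3-fold serial dilutions from 20 μM to 1.02 nM. Viability was read as CCK-8 absorbance, and % inhibition was computed against DMSO-treated cells, with cell-free DMSO medium as blank.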
# KRAS(G12C) [2] = target: T1, KRAS(G12C) (Homo sapiens, UniProt P01116, G12C); assay: KRAS(G12C)/SOS1 homogeneous time-resolved fluorescence (HTRF) assay; parameters: purchased Cisbio 63ADK000CB16PEG; details: absence of GTP, 4° C. for 3 hr, read-out: KRAS (G12C) binding
# How it was run: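 Three-hour incubation at 4 °C of 3-fold compound dilutions (lowest 1.02 nM) with KRAS(G12C), SOS1 and detection reagents, GTP absent. Disruption of the KRAS(G12C)/SOS1 complex detected by time-resolved fluorescence.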
# KRAS(G12C) [3] = target: T1, KRAS(G12C); assay: KRAS(G12C) Western blot protein degradation assay in LU65A cells; format: cell-based; parameters: LU65A human lung cancer cell line, which expresses KRAS(G12C); host or cells: LU65A; details: 6 hr
# Method: The following cancer cell lines were employed: BT-474 human breast carcinoma (ATCC, #HTB-20); MIA PaCa-2 human pancreatic carcinoma [2 copies KRAS(G12C)](ATCC, #CRL-1420); NCI-H23 human non-small cell lung cancer [1 copy KRAS(G12C)](ATCC, #CRL-5800); NCI-H358 human non-small cell lung cancer [1 copy KRAS(G12C)](ATCC, #CRL-5807); LU65A human lung carcinoma (Pharmaron, Beijing, China). Cell lines were cultured essentially according to ATCC and Pharmaron recommendations.
# KRAS(G12C) Western Blot Protein Degradation Assay
# The MIA PaCa-2 human pancreatic carcinoma cell line and LU65A human lung cancer cell line, which expresses KRAS(G12C), were seeded in 6- or 12-well tissue culture plates, and after 1 hr, test compounds were added at various concentrations and incubated at 37° C./5% CO2 for 48 hr (MIA Paca-2) and 6 hr (LU65A) respectively. Cells were then washed with cold PBS, aspirated and cold RIPA buffer containing a protease/phosphatase inhibitor cocktail was added to lyse cells. After centrifugation, the total protein concentrations of cell lysates were determined using the BCA protein assay. Samples were normalized for equivalent protein concentrations, 5×SDS-PAGE loading buffer added and denatured at 100° C. for 10 min. 20 μl of each sample/well was loaded on a SDS-PAGE gel and electrophoresed for 20 min at 80 V, then 120 V for 1.5 hr. Gels were then electroblotted to nitrocellulose membranes using a wet-transfer method at 250 mA for 2.5 hr. Membranes were incubated with blocking buffer for 1 hr and washed 3 times with TBST for 5 min. Membranes were then incubated with anti-KRAS (Sigma-Aldrich, #SAB1404011) and anti-β-Actin monoclonal antibodies (Cell Signaling Technology, #3700) diluted in blocking buffer at 4° C. overnight per the manufacturer's recommendations. After washing 3 times, blots were incubated with appropriately labeled secondary antibodies for 1 hr at room temperature and washed again. Fluorescence imaging and quantitation was performed using a LI-COR Odyssey. Results was analyzed using GraphPad Prism 7 software. Compound degradation of was determined by the following equation and DC50 values (the concentration at which 50% of the maximal degradation of KRAS occurs) calculated using GraphPad Prism 7 software:
# % Inhibition=100−(D−B)/(S−B)*100%. • S: Fluorescence intensity of cells with antibody • D: Fluorescence intensity of compound-treated cells with antibody • B: Fluorescence intensity of cells without antibody
# T1 sequence (P01116 1-188 isoform P01116-2 G12C): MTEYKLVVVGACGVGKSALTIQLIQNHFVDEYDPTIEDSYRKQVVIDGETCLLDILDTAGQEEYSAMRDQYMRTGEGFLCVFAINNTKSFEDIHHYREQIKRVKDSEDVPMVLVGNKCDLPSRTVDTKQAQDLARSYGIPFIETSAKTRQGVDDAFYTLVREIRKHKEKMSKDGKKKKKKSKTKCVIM
Compound,"EC50 ([1]; Homo sapiens, MIA PaCa-2, 72 h)",IC50 (KRAS(G12C) [2]),DC50 (KRAS(G12C) [3]),EC50 ([1]; 72 hr)
"C=CC(=O)N1CCN(c2nc(OC[C@@H]3C[C@H](N4CCN(CC5CCN(Cc6ccc7c(c6)CN(C(=O)c6cc(C(C)C)c(O)cc6O)C7)CC5)CC4)CN3C)nc3c2CCN(c2cccc4cccc(Cl)c24)C3)C[C@@H]1CC#N [Compound 290, 2-[(2S)-4-[7-(8-chloronaphthalen-1-yl)-2-{[(2S,4S)-4-{4-[(1-{[2-(2,4-dihydroxy-5-isopropylbenzoyl)-1,3-dihydroisoindol-5-yl]methyl}piperidin-4-yl)methyl]piperazin-1-yl}-1-methylpyrrolidin-2-yl]methoxy}-5H,6H,8H-pyrido[3,4-d]pyrimidin-4-yl]-1-(prop-2-enoyl)piperazin-2-yl]acetonitrile]",< 100 nM,< 100 nM,> 1000 nM,–
"C=CC(=O)N1CCN(c2nc(OCC3(CN4CCN(Cc5ccc(-n6c(C(=O)NCC)nnc6-c6cc(C(C)C)c(O)cc6O)cc5)CC4)CC3)nc3c2CCN(c2cccc4cccc(Cl)c24)C3)C[C@@H]1CC#N [Compound 285, 4-{4-[(4-{[1-({[7-(8-chloronaphthalen-1-yl)-4-[(3S)-3-(cyanomethyl)-4-(prop-2-enoyl)piperazin-1-yl]-5H,6H,8H-pyrido[3,4-d]pyrimidin-2-yl]oxy}methyl)cyclopropyl]methyl}piperazin-1-yl)methyl]phenyl}-5-(2,4-dihydroxy-5-isopropylphenyl)-N-ethyl-1,2,4-triazole-3-carboxamide]",< 100 nM,< 100 nM,100 to 1000 nM,–
"C=CC(=O)N1CCN(c2nc(OC[C@@H]3C[C@H](N4CCN(Cc5ccc(-n6c(O)nnc6-c6cc(C)c(O)cc6O)cc5)CC4)CN3C)nc3c2CCN(c2cccc4cccc(Cl)c24)C3)C[C@@H]1CC#N [Compound 252, 2-[(2S)-4-[7-(8-chloronaphthalen-1-yl)-2-{[(2S,4S)-4-[4-({4-[3-(2,4-dihydroxy-5-methylphenyl)-5-hydroxy-1,2,4-triazol-4-yl]phenyl}methyl)piperazin-1-yl]-1-methylpyrrolidin-2-yl]methoxy}-5H,6H,8H-pyrido[3,4-d]pyrimidin-4-yl]-1-(prop-2-enoyl)piperazin-2-yl]acetonitrile]",> 1000 nM,< 100 nM,> 1000 nM,–
"C=CC(=O)N1CCN(c2nc(OCCN3CCC(C(=O)N4CCN(Cc5ccc(-n6c(C(=O)NCC(F)(F)F)nnc6-c6cc(C)c(O)cc6O)cc5)CC4)CC3)nc3c2CCN(c2cccc4cccc(Cl)c24)C3)C[C@@H]1CC#N [Compound 250, (S)-4-(4-((4-(1-(2-((4-(4-acryloyl-3-(cyanomethyl)piperazin-1-yl)-7-(8-chloronaphthalen-1-yl)-5,6,7,8-tetrahydropyrido[3,4-d]pyrimidin-2-yl)oxy)ethyl)piperidine-4-carbonyl)piperazin-1-yl)methyl)phenyl)-5-(2,4-dihydroxy-5-methylphenyl)-N-(2,2,2-trifluoroethyl)-4H-1,2,4-triazole-3-carboxamide]",–,< 100 nM,> 1000 nM,100 to 1000 nM

# More lines, now with the values ahead:
"EC50 ([1]; Homo sapiens, MIA PaCa-2, 72 h)",IC50 (KRAS(G12C) [2]),DC50 (KRAS(G12C) [3]),EC50 ([1]; 72 hr),Compound
< 100 nM,100 to 1000 nM,> 1000 nM,–,"C=C(F)C(=O)N1CCN(c2nc(OC[C@@H]3CC[C@H](CN4CCN(Cc5ccc(-n6c(C(=O)NCC)nnc6-c6cc(C(C)C)c(O)cc6O)cc5)CC4)N3C)nc3c2CCN(c2cccc4ccccc24)C3)C[C@@H]1CC#N [Compound 287, 4-{4-[(4-{[(2R,5S)-5-[({4-[(3S)-3-(cyanomethyl)-4-(2-fluoroprop-2-enoyl)piperazin-1-yl]-7-(naphthalen-1-yl)-5H,6H,8H-pyrido[3,4-d]pyrimidin-2-yl}oxy)methyl]-1-methylpyrrolidin-2-yl]methyl}piperazin-1-yl)methyl]phenyl}-5-(2,4-dihydroxy-5-isopropylphenyl)-N-ethyl-1,2,4-triazole-3-carboxamide]"
< 100 nM,< 100 nM,100 to 1000 nM,–,"C=CC(=O)N1CCN(c2nc(OC[C@@H]3CC[C@H](CN4CCN(C(=O)C5CCN(Cc6ccc(-n7c(C(=O)NCC)nnc7-c7cc(CC)c(O)cc7O)cc6)CC5)CC4)N3C)nc3c2CCN(c2cccc4cccc(Cl)c24)C3)C[C@@H]1CC#N [Compound 244, 4-(4-{[4-(4-{[(2R,5S)-5-({[7-(8-chloronaphthalen-1-yl)-4-[(3S)-3-(cyanomethyl)-4-(prop-2-enoyl)piperazin-1-yl]-5H,6H,8H-pyrido[3,4-d]pyrimidin-2-yl]oxy}methyl)-1-methylpyrrolidin-2-yl]methyl}piperazine-1-carbonyl)piperidin-1-yl]methyl}phenyl)-N-ethyl-5-(5-ethyl-2,4-dihydroxyphenyl)-1,2,4-triazole-3-carboxamide]"
100 to 1000 nM,< 100 nM,100 to 1000 nM,–,"C=CC(=O)N1CCN(c2nc(OC[C@@H]3C[C@H](N4CCN(CC5CCN(Cc6ccc(-n7c(O)nnc7-c7cc(C(C)C)c(O)cc7O)cc6)CC5)CC4)CN3C)nc3c2CCN(c2cccc4cccc(Cl)c24)C3)C[C@@H]1CC#N [Compound 275, 2-[(2S)-4-[7-(8-chloronaphthalen-1-yl)-2-{[(2S,4S)-4-(4-{[1-({4-[3-(2,4-dihydroxy-5-isopropylphenyl)-5-hydroxy-1,2,4-triazol-4-yl]phenyl}methyl)piperidin-4-yl]methyl}piperazin-1-yl)-1-methylpyrrolidin-2-yl]methoxy}-5H,6H,8H-pyrido[3,4-d]pyrimidin-4-yl]-1-(prop-2-enoyl)piperazin-2-yl]acetonitrile]"
100 to 1000 nM,< 100 nM,> 1000 nM,–,"C=CC(=O)N1CCN(c2nc(OC[C@@H]3C[C@H](N4CCN(Cc5ccc(-n6c(O)nnc6-c6cc(C(C)C)c(O)cc6O)cc5)CC4)CN3C)nc3c2CCN(c2cccc4cccc(Cl)c24)C3)C[C@@H]1CC#N [Compound 241, 2-[(2S)-4-[7-(8-chloronaphthalen-1-yl)-2-{[(2S,4S)-4-[4-({4-[3-(2,4-dihydroxy-5-isopropylphenyl)-5-hydroxy-1,2,4-triazol-4-yl]phenyl}methyl)piperazin-1-yl]-1-methylpyrrolidin-2-yl]methoxy}-5H,6H,8H-pyrido[3,4-d]pyrimidin-4-yl]-1-(prop-2-enoyl)piperazin-2-yl]acetonitrile]"
100 to 1000 nM,< 100 nM,100 to 1000 nM,–,"C=CC(=O)N1CCN(c2nc(OC[C@@H]3CC[C@H](CN4CCN(Cc5ccc(-n6c(C(=O)NCC)nnc6-c6cc(C(C)C)c(O)cc6O)cc5)CC4)N3C)nc3c2CCN(c2cccc(C)c2C)C3)C[C@@H]1CC#N [Compound 282, 4-{4-[(4-{[(2R,5S)-5-[({4-[(3S)-3-(cyanomethyl)-4-(prop-2-enoyl)piperazin-1-yl]-7-(2,3-dimethylphenyl)-5H,6H,8H-pyrido[3,4-d]pyrimidin-2-yl}oxy)methyl]-1-methylpyrrolidin-2-yl]methyl}piperazin-1-yl)methyl]phenyl}-5-(2,4-dihydroxy-5-isopropylphenyl)-N-ethyl-1,2,4-triazole-3-carboxamide]"
> 1000 nM,< 100 nM,> 1000 nM,–,"C=CC(=O)N1CCN(c2nc(OC[C@@H]3C[C@H](N4CCN(C(=O)C5CCN(Cc6ccc(-n7c(O)nnc7-c7cc(C)c(O)cc7O)cc6)CC5)CC4)CN3C)nc3c2CCN(c2cccc4cccc(Cl)c24)C3)C[C@@H]1CC#N [Compound 265, 2-[(2S)-4-[7-(8-chloronaphthalen-1-yl)-2-{[(2S,4S)-4-{4-[1-({4-[3-(2,4-dihydroxy-5-methylphenyl)-5-hydroxy-1,2,4-triazol-4-yl]phenyl}methyl)piperidine-4-carbonyl]piperazin-1-yl}-1-methylpyrrolidin-2-yl]methoxy}-5H,6H,8H-pyrido[3,4-d]pyrimidin-4-yl]-1-(prop-2-enoyl)piperazin-2-yl]acetonitrile]"
